Laboratory results published in US20150274719A1, “AMINO-SUBSTITUTED IMIDAZO[1,2-A]PYRIDINECARBOXAMIDES AND THEIR USE” (BAYER PHARMA AKTIENGESELLSCHAFT, priority 2012, published 2015).
Structures can show the parent of a compound that is named as a salt.

Biological target: T1, recombinant guanylate cyclase reporter cell line (Rattus norvegicus, UniProt P19686+P20595)
T1 construct: expressed in transfected cells; host or cells: recombinant reporter cell line
T1 sequence (P19686 1-690): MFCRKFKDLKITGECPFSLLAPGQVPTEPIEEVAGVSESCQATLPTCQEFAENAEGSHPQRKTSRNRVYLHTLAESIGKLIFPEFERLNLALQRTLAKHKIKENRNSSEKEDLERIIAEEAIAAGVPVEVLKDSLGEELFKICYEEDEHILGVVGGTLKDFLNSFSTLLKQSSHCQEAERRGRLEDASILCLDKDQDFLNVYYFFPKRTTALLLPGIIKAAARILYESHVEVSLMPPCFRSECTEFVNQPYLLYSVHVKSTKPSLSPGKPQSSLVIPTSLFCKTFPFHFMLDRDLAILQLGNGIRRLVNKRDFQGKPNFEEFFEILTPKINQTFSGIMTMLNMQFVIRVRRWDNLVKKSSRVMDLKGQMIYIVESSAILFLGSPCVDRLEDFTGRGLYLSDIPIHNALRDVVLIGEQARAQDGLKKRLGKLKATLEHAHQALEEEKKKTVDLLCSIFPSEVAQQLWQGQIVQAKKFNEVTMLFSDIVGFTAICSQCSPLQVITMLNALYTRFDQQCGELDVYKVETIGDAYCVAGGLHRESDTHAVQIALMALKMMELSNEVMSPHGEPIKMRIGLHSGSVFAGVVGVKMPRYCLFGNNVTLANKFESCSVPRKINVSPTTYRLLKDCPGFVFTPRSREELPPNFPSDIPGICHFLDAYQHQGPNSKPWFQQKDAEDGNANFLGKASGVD
T1 sequence (P20595 1-619): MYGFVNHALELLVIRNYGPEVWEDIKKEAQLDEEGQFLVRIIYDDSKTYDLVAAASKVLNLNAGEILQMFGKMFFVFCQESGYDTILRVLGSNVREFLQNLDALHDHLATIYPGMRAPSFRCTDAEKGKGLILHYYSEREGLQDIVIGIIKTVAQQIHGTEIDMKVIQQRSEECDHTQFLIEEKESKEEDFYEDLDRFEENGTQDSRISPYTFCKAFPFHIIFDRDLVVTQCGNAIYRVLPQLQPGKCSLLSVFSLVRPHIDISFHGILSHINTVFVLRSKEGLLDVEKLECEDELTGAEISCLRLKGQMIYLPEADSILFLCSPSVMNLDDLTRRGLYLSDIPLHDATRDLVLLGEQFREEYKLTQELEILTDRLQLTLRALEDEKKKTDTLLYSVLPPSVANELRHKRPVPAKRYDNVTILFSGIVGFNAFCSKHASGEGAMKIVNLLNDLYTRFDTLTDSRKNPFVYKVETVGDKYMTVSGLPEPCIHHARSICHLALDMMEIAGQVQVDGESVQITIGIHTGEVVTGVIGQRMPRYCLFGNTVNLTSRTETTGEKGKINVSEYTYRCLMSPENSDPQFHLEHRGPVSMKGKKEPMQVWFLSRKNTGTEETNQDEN
Experiment: Action on recombinant guanylate cyclase reporter cell line
Format: cell-based
Settings: in some cases mean values from individual determinations
Summary of the method: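 Each compound is applied to a cell line engineered with a reporter for recombinant guanylate cyclase. The minimal effective concentration is then noted, in part as a mean across separate determinations.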

Row | MEC (minimal effective concentration) [µM] | SMILES
1 | 0.30 | Cc1cc(OCc2c(F)cccc2F)c2nc(C)c(C(=O)NC3CCC(N)C3)n2c1 (single isomer, unassigned) [Example 309, ent-N-(3-aminocyclopentyl)-8-[(2,6-difluorobenzyl)oxy]-2,6-dimethylimidazo[1,2-a]pyridine-3-carboxamide]
2 | 1.00 | Cc1nc2c(OCc3c(F)cccc3F)cccn2c1C(=O)NC(CN)CC(C(F)(F)F)C(F)(F)F (single isomer, unassigned; enantiomer a) [Example 7, ent-N-[1-Amino-5,5,5-trifluoro-4-(trifluoromethyl)pentan-2-yl]-8-[(2,6-difluorobenzyl)oxy]-2-methylimidazo[1,2-a]pyridine-3-carboxamide (Enantiomer A)]
3 | 1.00 | Cc1nc2c(OCc3c(F)cccc3F)cccn2c1C(=O)NC(CN)c1ccc(F)c(F)c1 (single isomer, unassigned; enantiomer a) [Example 12, ent-N-[2-Amino-1-(3,4-difluorophenyl)ethyl]-8-[(2,6-difluorobenzyl)oxy]-2-methylimidazo[1,2-a]-pyridine-3-carboxamide (Enantiomer A)]
4 | 0.10 | CCCC(C)(N)CNC(=O)c1c(C)nc2c(OCc3c(F)cccc3F)cc(Cl)cn12 (single isomer, unassigned; enantiomer a) [Example 245, ent-N-(2-Amino-2-methylpentyl)-6-chloro-8-[(2,6-difluorobenzyl)oxy]-2-methylimidazo[1,2-a]-pyridine-3-carboxamide (Enantiomer A)]
5 | 3.00 | COCC(N)CNC(=O)c1c(C)nc2c(OCc3c(F)cccc3F)cccn12 (single isomer, unassigned; enantiomer a) [Example 247, ent-N-(2-Amino-3-methoxypropyl)-8-[(2,6-difluorobenzyl)oxy]-2-methylimidazo[1,2-a]pyridine-3-carboxamide (Enantiomer A)]
6 | 0.10 | Cc1cc(OCc2c(F)cccc2F)c2nc(C)c(C(=O)NCC(C)(N)C3CC3)n2c1 (single isomer, unassigned; enantiomer a) [Example 260, ent-N-(2-Amino-2-cyclopropylpropyl)-8-[(2,6-difluorobenzyl)oxy]-2,6-dimethylimidazo[1,2-a]-pyridine-3-carboxamide (Enantiomer A)]
7 | 0.03 | Cc1nc2c(OCc3c(F)cccc3F)cccn2c1C(=O)NCC(C)(N)CCOCc1ccccc1 (single isomer, unassigned; enantiomer a) [Example 266, ent-N-[2-Amino-4-(benzyloxy)-2-methylbutyl]-8-[(2,6-difluorobenzyl)oxy]-2-methylimidazo[1,2-a]pyridine-3-carboxamide (Enantiomer A)]
8 | 0.55 | Cc1cc(OCc2c(F)cccc2F)c2nc(C)c(C(=O)NCC(C)(N)CO)n2c1 (single isomer, unassigned; enantiomer a) [Example 268, ent-N-(2-Amino-3-hydroxy-2-methylpropyl)-8-[(2,6-difluorobenzyl)oxy]-2,6-dimethylimidazo-[1,2-a]pyridine-3-carboxamide (Enantiomer A)]
9 | 0.30 | Cc1cc(OCc2c(F)cccc2F)c2nc(C)c(C(=O)NCC(C)(N)CCO)n2c1 (single isomer, unassigned; enantiomer a) [Example 271, ent-N-(2-Amino-4-hydroxy-2-methylbutyl)-8-[(2,6-difluorobenzyl)oxy]-2,6-dimethylimidazo[1,2-a]pyridine-3-carboxamide (Enantiomer A)]
10 | 5.5 | Cc1nc2c(OCc3c(F)cccc3F)cccn2c1C(=O)NCC(C)(N)CCO (single isomer, unassigned; enantiomer a) [Example 272, ent-N-(2-Amino-4-hydroxy-2-methylbutyl)-8-[(2,6-difluorobenzyl)oxy]-2-methylimidazo[1,2-a]-pyridine-3-carboxamide (Enantiomer A)]
11 | 0.3 | CCC(C)(N)CNC(=O)c1c(C)nc2c(OCc3c(F)cccc3F)cc(C(F)F)cn12 (single isomer, unassigned; enantiomer a) [Example 288, ent-N-(2-amino-2-methylbutyl)-8-[(2,6-difluorobenzyl)oxy]-6-(difluoromethyl)-2-methylimidazo[1,2-a]pyridine-3-carboxamide (Enantiomer A)]
12 | 0.10 | Cc1cc(OCc2c(F)cccc2F)c2nc(C)c(C(=O)NCC(C)(N)Cc3ccccn3)n2c1 (single isomer, unassigned; enantiomer a) [Example 298, ent-N-[2-amino-2-methyl-3-(pyridin-2-yl)propyl]-8-[(2,6-difluorobenzyl)oxy]-2,6-dimethyl-imidazo[1,2-a]pyridine-3-carboxamide (Enantiomer A)]
13 | 0.10 | CCC(C)(N)CNC(=O)c1c(C)nc2c(OCc3c(F)ccc(F)c3F)cc(C)cn12 (single isomer, unassigned; enantiomer a) [Example 300, ent-N-(2-amino-2-methylbutyl)-2,6-dimethyl-8-[(2,3,6-trifluorobenzyl)oxy]imidazo[1,2-a]pyridine-3-carboxamide (Enantiomer A) hydrochloride]
14 | 3.00 | Cc1cc(OCc2c(F)cccc2F)c2nc(C)c(C(=O)NC3CCC3N)n2c1 (single isomer, unassigned; enantiomer a) [Example 328, ent-N-(2-aminocyclobutyl)-8-[(2,6-difluorobenzyl)oxy]-2,6-dimethylimidazo[1,2-a]pyridine-3-carboxamide (Enantiomer A)]
15 | 1.00 | Cc1cc(OCc2c(F)cccc2F)c2nc(C)c(C(=O)NC3CCC3(C)N)n2c1 (single isomer, unassigned; enantiomer a) [Example 332, ent-N-[2-amino-2-methylcyclobutyl]-8-[(2,6-difluorobenzyl)oxy]-2,6-dimethylimidazo[1,2-a]pyridine-3-carboxamide (Enantiomer A)]
16 | 0.30 | Cc1cc(OCc2c(F)cccc2F)c2nc(C)c(C(=O)NC3(C)CCC3(C)N)n2c1 (single isomer, unassigned; enantiomer a) [Example 336, ent-N-[(2-amino-1,2-dimethylcyclobutyl]-8-[(2,6-difluorobenzyl)oxy]-2,6-dimethylimidazo[1,2-a]pyridine-3-carboxamide (Enantiomer A)]
17 | 0.03 | CCC(C)(N)CNC(=O)c1c(C)nc2c(OCc3c(F)cccc3F)cc(C)cn12.Cl (single isomer, unassigned; enantiomer a) [Example 357, ent-N-(2-amino-2-methylbutyl)-8-[(2,6-difluorobenzyl)oxy]-2,6-dimethylimidazo[1,2-a]pyridine-3-carboxamide hydrochloride (Enantiomer A)]
18 | 1.00 | Cc1cc(OCc2c(F)cccc2F)c2nc(C)c(C(=O)NCC(N)C#N)n2c1 (single isomer, unassigned; enantiomer a) [Example 401, ent-N-(2-amino-2-cyanoethyl)-8-[(2,6-difluorobenzyl)oxy]-2,6-dimethylimidazo[1,2-a]pyridine-3-carboxamide (Enantiomer A)]
19 | 0.30 | Cc1nc2c(OCc3c(F)cccc3F)cccn2c1C(=O)NC(CN)CC(F)(F)F (single isomer, unassigned; enantiomer b) [Example 3, ent-N-(1-Amino-4,4,4-trifluorobutan-2-yl)-8-[(2,6-difluorobenzyl)oxy]-2-methylimidazo[1,2-a]-pyridine-3-carboxamide (Enantiomer B)]
20 | 0.23 | Cc1nc2c(OCc3c(F)cccc3F)cccn2c1C(=O)NC(CN)CCCC(F)(F)F (single isomer, unassigned; enantiomer b) [Example 6, ent-N-(1-Amino-6,6,6-trifluorohexan-2-yl)-8-[(2,6-difluorobenzyl)oxy]-2-methylimidazo[1,2-a]-pyridine-3-carboxamide (Enantiomer B)]
